Experimental findings from US7960387B2, “2-(3-phenyl-2-piperazinyl-3,4-dihydroquinazolin-4-yl)acetic acids as antiviral agents, especially against cytomegaloviruses” (Bayer Schering Pharma Aktiengesellschaft, priority 2003, dated 2011) are described below.

Counter-ions that a name gives are not always drawn. Like-named read-outs stand apart in the source and are kept apart here.

Data set [1] is described as follows: Anti-HCMV cytopathogenicity test: cytostatic effects on NHDF cells. The note with it: NHDF cells (human prepuce fibroblasts), 6 days incubation, visual assessment, concentration at which no visible cytostatic effects are evident vs untreated cell control. It counts as cell-based. Here is the method:
(§1) Anti-HCMV (Anti-Human Cytomegalovirus) Cytopathogenicity Tests The test compounds are employed as 50 millimolar (mM) solutions in dimethyl sulphoxide (DMSO). Ganciclovir®, Foscarnet® and Cidofovir® are used as reference compounds. After addition of in each case 2 μl of the 50, 5, 0.5 and 0.05 mM DMSO stock solutions to 98 μl portions of cell culture medium in row […] for duplicate determinations, 1:2 dilutions are carried out with 50 μl portions of medium up to row 11 of the 96-well plate. The wells in rows 1 and 12 each contain 50 μl of medium. In 150 μl of a suspension of 1×10^4 cells (human prepuce fibroblasts [NHDF]) are pipetted into each of the wells (row 1=cell control) and, in rows 2-12, a mixture of HCMV-infected and uninfected NHDF cells (M.O.I.=0.001-0.002), i.e. 1-2 infected cells per 1000 uninfected cells. Row 12 (without substance) serves as virus control. The final test concentrations are 250-0.0005 μM. The plates are incubated at 37° C./5% CO2 for 6 days, i.e. until all the cells are infected in the virus controls (100% cytopathogenic effect [CPE]). The wells are then fixed and stained by adding a mixture of formalin and Giemsa's dye (30 minutes), washed with double-distilled water and dried in a drying oven at 50° C. The plates are then assessed visually using an overhead microscope (Plaque Multiplier from Technomara). The following data can be acquired from the test plates: • CC50 (NHDF)=substance concentration in μM at which no visible cytostatic effects on the cells are evident by comparison with the untreated cell control; • EC50 (HCMV)=substance concentration in μM which inhibits the CPE (cytopathic effect) by 50% compared with the untreated virus control; • SI (selectivity index)=CC50 (NHDF)/EC50 (HCMV).

The next data set has as its system HCMV. As to the kind of experiment: Anti-HCMV cytopathogenicity test. The note with it: read-out: HCMV EC50. It counts as cell-based, human cytomegalovirus. The protocol:
as §1

[2] abbreviates: Human betaherpesvirus 5, 144 h, HCMV-infected NHDF cells, M.O.I. 0.001-0.002, 6 days, 50% inhibition of CPE vs untreated virus control.

For orientation: CC50 means the concentration at which the toxic effect on the cells reaches its halfway point. The term EC50 denotes the concentration needed to bring the measured effect to its halfway point. In the case of `COc1ccc(Cl)cc1N1C(N2CCN(c3ccc(F)cc3)CC2)=Nc2ccccc2C1CC(=O)O` (stereo not shown) [Example 29, {2-[4-(4-Fluorophenyl)-1-piperazinyl]-3-[2-methoxy-5-chlorophenyl]-3,4-dihydro-4-quinazolinyl}acetic acid], the CC50 at 6 days in data set [1] was determined as 125 µM. For the same compound, the 50% effective concentration (EC50) with HCMV (setting [2]) amounted to 70 nM.
As for `O=C(O)CC1c2ccccc2N=C(N2CCN(c3ccc(F)cc3)CC2)N1c1cc(C(F)(F)F)ccc1F` (stereo not shown) [Example 2, {2-[4-(4-Fluorophenyl)-1-piperazinyl]-3-[2-fluoro-5-(trifluoromethyl)phenyl]-3,4-dihydro-4-quinazolinyl}acetic acid hydrochloride], it took 39 µM to reach half-maximal cytotoxicity in data set [1] (CC50 at 6 days). The 50% effective concentration (EC50) in the data set with HCMV (Human betaherpesvirus 5, NHDF, 144 h) amounted to 60 nM.
In data set [1], `Cc1cc(N2CCN(C3=Nc4ccccc4C(CC(=O)O)N3c3cccc(C(F)(F)F)c3)CC2)ccc1F` (stereo not shown) [Example 1, {2-[4-(4-Fluoro-3-methylphenyl)-1-piperazinyl]-3-[3-(trifluoromethyl)phenyl]-3,4-dihydro-4-quinazolinyl}acetic acid] gave a CC50 at 6 days of 17 µM. Besides, the EC50 in the data set with HCMV (setting [2]) turned out to be 27 nM.
`COc1ccc(C)cc1N1C(N2CCN(c3cccc(C)c3)CC2)=Nc2ccccc2C1CC(=O)O` (stereo not shown) [Example 30, {2-[4-(3-Methylpheny)-1-piperazinyl]-3-[2-methoxy-5-methylphenyl]-3,4-dihydro-4-quinazolinyl}acetic acid]: in data set [1], the CC50 at 6 days was 250 µM. In the data set with HCMV (setting [2]), the EC50 is 250 nM.
`COc1ccc(C(F)(F)F)cc1N1C(N2CCN(c3cccc(Cl)c3)CC2)=Nc2ccccc2C1CC(=O)O` (stereo not shown) [Example 26, {2-[4-(3-Chlorophenyl)-1-piperazinyl]-3-[2-methoxy-5-(trifluoromethyl)phenyl]-3,4-dihydro-4-quinazolinyl)acetic acid] returned a CC50 at 6 days in data set [1] of 31 µM. The EC50 with HCMV (setting [2]) was found to be 19 nM.
In turn, `COc1cccc(N2CCN(C3=Nc4ccccc4C(CC(=O)O)N3c3cccc(C#N)c3)CC2)c1` (stereo not shown) [Example 23] came in with a CC50 at 6 days in data set [1] of 188 µM. The EC50 in the data set on HCMV (setting [2]) stood at 760 nM.
In turn, `COc1ccc(C)cc1N1C(N2CCN(c3cccc(Cl)c3)CC2)=Nc2ccccc2C1CC(=O)O` (stereo not shown) [Example 31, {2-[4-(3-Chlorophenyl)-1-piperazinyl]-3-[2-methoxy-5-methylphenyl]-3,4-dihydro-4-quinazolinyl}acetic acid] displayed a CC50 at 6 days in data set [1] of 63 µM. Moreover, in the data set with HCMV (setting [2]), the EC50 was 140 nM.
Consider `COc1cccc(N2CCN(C3=Nc4ccccc4C(CC(=O)O)N3c3cc(Cl)ccc3OC)CC2)c1` (stereo not shown) [Example 28, {2-[4-(3-Methoxyphenyl)-1-piperazinyl]-3-[2-methoxy-5-chlorophenyl]-3,4-dihydro-4-quinazolinyl]acetic acid], for which it took 63 µM to reach half-maximal cytotoxicity in data set [1] (CC50 at 6 days). The EC50 with HCMV (setting [2]) worked out at 25 nM.
For `Cc1cc(Cl)ccc1N1C(N2CCN(c3cccc(Cl)c3)CC2)=Nc2ccccc2C1CC(=O)O` (stereo not shown) [Example 6, {2-[4-(3-Chlorophenyl)-1-piperazinyl]-3-[4-chloro-2-methylphenyl]-3,4-dihydro-4-quinazolinyl}acetic acid], in data set [1], the CC50 at 6 days was determined as 22 µM. Moreover, in the data set with HCMV (setting [2]), the concentration for a half-maximal effect (EC50) amounted to 400 nM.
`O=C(O)CC1c2ccccc2N=C(N2CCN(c3cccc(Cl)c3)CC2)N1c1ccc(F)c(Cl)c1` (stereo not shown) [Example 19] gave a CC50 at 6 days in data set [1] of 24 µM. In the data set on HCMV (setting [2]), the EC50 came to 400 nM.
In the case of `COc1ccc(C(F)(F)F)cc1N1C(N2CCN(c3cccc(C)c3)CC2)=Nc2ccccc2C1CC(=O)O` (stereo not shown) [Example 27, {2-[4-(3-Methylphenyl)-1-piperazinyl]-3-[2-methoxy-5-(trifluoromethyl)phenyl]-3,4-dihydro-4-quinazolinyl}acetic acid], the CC50 at 6 days in data set [1] was found to be 188 µM. Moreover, the EC50 with HCMV (setting [2]) stood at 130 nM.
